“And” between values parts separate entries of the source, which are not always exact repeats. Equal entries are not always repeated. Where two headings read alike, the source gives them in different places.
Legend:
[1] = UV/Vis absorption and fluorescence (photophysical properties) in DMSO; format: physicochemical; details: for λem: excitation at 340 nm; for Φf (fluorescence quantum yield): relative to quinine sulfate, average of two samples
Description: S1.6 UV/Vis and Fluorescence Data
UV/Vis analysis was performed on a Cary Eclipse 300 UV/Vis spectrophotometer and fluorescence measurements performed on a Cary Eclipse Fluorescence spectrophotometer. All analysis was performed in 10 mm quartz cuvettes using AR grade DMSO. Relative quantum yields were obtained by comparison to quinine sulfate (фf = 0.58 in 0.1 M H2SO4) with absorbance of samples adjusted so that the absorbance at 340 nm was similar to the reference.
Emission spectra were obtained by excitation at 340 nm. Quantum yield was obtained by use of the following equation and are reported as the average of two samples with error <5%; […]
Where фref is the literature quantum yield of the reference, η is the refractive index of the solvent (H2O = 1.333, DMSO = 1.479) and Is is the integrated fluorescence intensity of the sample with Iref being the same of the reference.
Table S1 – Photophysical properties of selected compounds in DMSO […]
†Average of two samples, ±1%

HDAC3 = target: T1, HDAC3 (Homo sapiens, UniProt O15379); assay: HDAC3 enzyme inhibition assay (single point and 10-dose IC50, Reaction Biology); format: biochemical; details: for IC50: average of two independent measurements; for HDAC3 average enzyme isoform activity (percentage of full enzyme activity): single point, inhibitor 1.0 μM, average of two measurements, ±2%
T1 construct: purchased Reaction Biology corporation (contract assay)
T1 sequence (O15379 whole entry, canonical isoform): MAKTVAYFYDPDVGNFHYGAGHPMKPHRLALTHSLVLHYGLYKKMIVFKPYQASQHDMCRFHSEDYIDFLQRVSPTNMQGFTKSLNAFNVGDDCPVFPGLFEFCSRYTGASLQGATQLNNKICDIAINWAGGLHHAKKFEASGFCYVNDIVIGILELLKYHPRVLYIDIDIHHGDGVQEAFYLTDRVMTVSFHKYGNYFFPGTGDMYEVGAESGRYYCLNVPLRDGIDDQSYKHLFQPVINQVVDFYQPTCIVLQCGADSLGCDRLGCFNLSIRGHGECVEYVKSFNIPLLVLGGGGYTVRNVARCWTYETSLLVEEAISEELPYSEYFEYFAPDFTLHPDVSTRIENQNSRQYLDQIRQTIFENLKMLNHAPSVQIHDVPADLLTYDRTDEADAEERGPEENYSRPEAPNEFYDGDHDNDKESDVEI
T1 sequence (Q9Y618 395-489 partner limits assumed): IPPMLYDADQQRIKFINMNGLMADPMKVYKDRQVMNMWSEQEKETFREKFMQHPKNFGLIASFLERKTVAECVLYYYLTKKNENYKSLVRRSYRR
Description: (§1) All IC50 measurements we performed by Reaction Biology corporation. Compounds were tested in
(§2) dilution starting at 1 uM. […]
(§3) (RHK(Ac)K(Ac)AMC). IC50 values were calculated using the GraphPad Prism 4 program based on a
(§4) sigmoidal dose-response equation. […]

HDAC11 = target: T2, HDAC11 (Homo sapiens, UniProt Q96DB2); assay: HDAC11 enzyme inhibition assay (single point and 10-dose IC50, Reaction Biology); format: biochemical; details: for IC50: average of two independent measurements; for Selectivity factor (SF) HDAC11 against HDAC6: selectivity for HDAC6 over HDAC11; for HDAC11 average enzyme isoform activity (percentage of full enzyme activity): single point, inhibitor 1.0 μM, average of two measurements, ±2%
T2 construct: purchased Reaction Biology corporation (contract assay)
T2 sequence (Q96DB2 1-347): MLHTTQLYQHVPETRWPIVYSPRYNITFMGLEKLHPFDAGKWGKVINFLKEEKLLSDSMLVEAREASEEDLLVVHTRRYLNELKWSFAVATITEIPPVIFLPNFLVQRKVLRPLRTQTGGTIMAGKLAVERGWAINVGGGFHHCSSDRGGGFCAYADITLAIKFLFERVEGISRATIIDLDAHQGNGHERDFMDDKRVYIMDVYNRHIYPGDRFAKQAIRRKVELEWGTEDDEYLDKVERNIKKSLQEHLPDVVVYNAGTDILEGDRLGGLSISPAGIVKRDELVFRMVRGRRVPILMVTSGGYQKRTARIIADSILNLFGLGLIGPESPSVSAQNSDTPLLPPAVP
Description: (§5) Against HDAC6, inhibition was determined using 0.01 µM of the inhibitor.
All IC50 measurements we performed by Reaction Biology corporation. Compounds were tested in […]
dilution starting at 1 uM.
Substrate for HDAC11: 50 uM Fluorogenic HDAC Class2a Substrate […]
(Trifluoroacetyl Lysine).
(RHK(Ac)K(Ac)AMC). IC50 values were calculated using the GraphPad Prism 4 program based on a sigmoidal dose-response equation. […]

HDAC8 = target: T3, HDAC8 (Homo sapiens, UniProt Q9BY41); assay: HDAC8 enzyme inhibition assay (single point and 10-dose IC50, Reaction Biology); format: biochemical; details: for IC50: average of two independent measurements; for Selectivity factor (SF) HDAC8 against HDAC6: selectivity for HDAC6 over HDAC8
T3 construct: purchased Reaction Biology corporation (contract assay)
T3 sequence (Q9BY41 1-377): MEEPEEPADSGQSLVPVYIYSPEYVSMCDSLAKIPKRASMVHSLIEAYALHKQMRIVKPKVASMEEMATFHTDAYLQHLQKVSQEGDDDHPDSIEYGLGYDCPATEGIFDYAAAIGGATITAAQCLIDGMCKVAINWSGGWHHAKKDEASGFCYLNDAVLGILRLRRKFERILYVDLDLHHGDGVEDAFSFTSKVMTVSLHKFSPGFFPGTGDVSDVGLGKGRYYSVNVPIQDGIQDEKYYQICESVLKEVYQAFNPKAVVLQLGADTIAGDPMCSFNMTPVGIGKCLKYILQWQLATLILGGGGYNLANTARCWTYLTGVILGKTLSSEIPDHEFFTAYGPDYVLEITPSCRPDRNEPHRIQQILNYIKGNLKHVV
Description: as §5, §1, §2, §3, §4

HDAC1 = target: T4, HDAC1 (Homo sapiens, UniProt Q13547); assay: HDAC1 enzyme inhibition assay (single point and 10-dose IC50, Reaction Biology); format: biochemical; details: for IC50: average of two independent measurements; for Selectivity factor (SF) = HDAC1 IC50/HDAC6 IC50: selectivity for HDAC6 over HDAC1; for HDAC1 average enzyme isoform activity (percentage of full enzyme activity): single point, inhibitor 1.0 μM, average of two measurements, ±2%
T4 construct: purchased Reaction Biology corporation (contract assay)
T4 sequence (Q13547 whole entry, canonical isoform): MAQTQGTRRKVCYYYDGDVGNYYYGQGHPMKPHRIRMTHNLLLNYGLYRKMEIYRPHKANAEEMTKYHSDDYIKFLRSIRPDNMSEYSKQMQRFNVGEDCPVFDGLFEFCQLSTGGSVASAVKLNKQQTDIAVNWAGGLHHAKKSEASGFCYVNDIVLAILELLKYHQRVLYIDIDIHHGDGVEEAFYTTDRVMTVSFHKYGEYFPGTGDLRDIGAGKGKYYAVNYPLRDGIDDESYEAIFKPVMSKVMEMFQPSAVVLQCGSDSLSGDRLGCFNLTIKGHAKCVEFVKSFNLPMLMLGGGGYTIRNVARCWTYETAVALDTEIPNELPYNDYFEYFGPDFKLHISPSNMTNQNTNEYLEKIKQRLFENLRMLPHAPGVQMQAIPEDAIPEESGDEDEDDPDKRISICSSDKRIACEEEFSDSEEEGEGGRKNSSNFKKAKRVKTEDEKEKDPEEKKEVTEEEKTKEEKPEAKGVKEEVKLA
Description: as §1, §2, §3, §4

HDAC6 = target: T5, HDAC6 (Homo sapiens, UniProt Q9UBN7); assay: HDAC6 enzyme inhibition assay (single point and 10-dose IC50, Reaction Biology); format: biochemical; details: for IC50: average of two independent measurements; for HDAC6 average enzyme isoform activity (percentage of full enzyme activity): single point, inhibitor 0.01 μM, average of two measurements, ±2%
T5 construct: purchased Reaction Biology corporation (contract assay)
T5 sequence (Q9UBN7 1-1215): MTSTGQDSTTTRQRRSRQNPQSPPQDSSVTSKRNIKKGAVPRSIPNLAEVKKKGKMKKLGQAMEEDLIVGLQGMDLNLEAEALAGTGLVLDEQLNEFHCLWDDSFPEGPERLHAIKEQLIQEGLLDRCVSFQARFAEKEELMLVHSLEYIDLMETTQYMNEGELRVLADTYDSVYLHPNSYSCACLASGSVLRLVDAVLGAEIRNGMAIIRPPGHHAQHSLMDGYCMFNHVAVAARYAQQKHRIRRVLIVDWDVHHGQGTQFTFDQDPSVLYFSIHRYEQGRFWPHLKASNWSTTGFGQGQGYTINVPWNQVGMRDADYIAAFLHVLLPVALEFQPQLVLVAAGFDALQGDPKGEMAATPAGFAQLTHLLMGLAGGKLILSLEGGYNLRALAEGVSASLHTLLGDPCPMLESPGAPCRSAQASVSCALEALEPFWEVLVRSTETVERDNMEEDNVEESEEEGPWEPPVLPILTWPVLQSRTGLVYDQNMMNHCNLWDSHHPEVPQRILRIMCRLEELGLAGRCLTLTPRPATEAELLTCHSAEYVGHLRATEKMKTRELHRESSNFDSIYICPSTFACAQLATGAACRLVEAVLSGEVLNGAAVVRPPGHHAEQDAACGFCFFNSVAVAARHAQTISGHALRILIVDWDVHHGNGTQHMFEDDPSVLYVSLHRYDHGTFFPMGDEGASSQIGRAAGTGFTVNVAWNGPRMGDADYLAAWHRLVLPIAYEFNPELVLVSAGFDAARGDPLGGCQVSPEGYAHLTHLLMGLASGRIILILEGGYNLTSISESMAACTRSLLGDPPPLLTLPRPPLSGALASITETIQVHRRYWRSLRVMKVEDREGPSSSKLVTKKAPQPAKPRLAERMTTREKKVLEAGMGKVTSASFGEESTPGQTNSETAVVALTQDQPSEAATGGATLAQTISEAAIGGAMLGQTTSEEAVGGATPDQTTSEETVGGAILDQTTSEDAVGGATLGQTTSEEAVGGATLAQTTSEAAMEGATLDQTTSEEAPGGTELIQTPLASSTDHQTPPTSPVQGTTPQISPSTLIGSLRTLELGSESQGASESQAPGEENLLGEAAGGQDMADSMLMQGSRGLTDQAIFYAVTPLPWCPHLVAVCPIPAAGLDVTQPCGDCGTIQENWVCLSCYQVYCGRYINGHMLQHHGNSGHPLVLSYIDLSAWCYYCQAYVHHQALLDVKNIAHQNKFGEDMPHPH
Description: as §5, §1, §2, §3, §4

[2] = single point, inhibitor 1.0 μM, average of two measurements, ±2%

Structure (SMILES)	λabs (absorption maximum) [1] [nm]	λabs (secondary absorption maximum) [1]	λem [1] [nm]	Φf (fluorescence quantum yield) [1]	IC50 (HDAC3) [nM]	Selectivity factor (SF) HDAC3 against HDAC6 (HDAC3; selectivity for HDAC6 over HDAC3)	HDAC3 average enzyme isoform activity (percentage of full enzyme activity) (HDAC3) [%]	IC50 (HDAC11) [nM]	Selectivity factor (SF) HDAC11 against HDAC6 (HDAC11)	HDAC11 average enzyme isoform activity (percentage of full enzyme activity) (HDAC11) [%]	IC50 (HDAC8) [nM]	Selectivity factor (SF) HDAC8 against HDAC6 (HDAC8)	HDAC8 average enzyme isoform activity (percentage of full enzyme activity) (HDAC8; [2]) [%]	IC50 (HDAC1) [nM]	Selectivity factor (SF) = HDAC1 IC50/HDAC6 IC50 (HDAC1)	HDAC1 average enzyme isoform activity (percentage of full enzyme activity) (HDAC1) [%]	IC50 (HDAC6) [nM]	HDAC6 average enzyme isoform activity (percentage of full enzyme activity) (HDAC6) [%]	HDAC8 average enzyme isoform activity (percentage of full enzyme activity) (HDAC8) [%]
COCCN1C(=O)c2cccc3cc(N4CCCC4=O)cc(c23)C1=O [Compound 8]	343	383 nm	441	0.02	–	–	–	–	–	–	–	–	–	–	–	–	–	–	–
COCCN1C(=O)c2cccc3cc(NC(=O)c4ccccc4)cc(c23)C1=O [Compound 6]	344	385 nm	435	0.02	–	–	–	–	–	–	–	–	–	–	–	–	–	–	–
CCC(=O)Nc1cc2c3c(cccc3c1)C(=O)N(CCOC)C2=O [Compound 7]	341	383 nm	439	0.04	–	–	–	–	–	–	–	–	–	–	–	–	–	–	–

Next, values leading:

λabs (absorption maximum) [1] [nm]	λabs (secondary absorption maximum) [1]	λem [1] [nm]	Φf (fluorescence quantum yield) [1]	IC50 (HDAC3) [nM]	Selectivity factor (SF) HDAC3 against HDAC6 (HDAC3; selectivity for HDAC6 over HDAC3)	HDAC3 average enzyme isoform activity (percentage of full enzyme activity) (HDAC3) [%]	IC50 (HDAC11) [nM]	Selectivity factor (SF) HDAC11 against HDAC6 (HDAC11)	HDAC11 average enzyme isoform activity (percentage of full enzyme activity) (HDAC11) [%]	IC50 (HDAC8) [nM]	Selectivity factor (SF) HDAC8 against HDAC6 (HDAC8)	HDAC8 average enzyme isoform activity (percentage of full enzyme activity) (HDAC8; [2]) [%]	IC50 (HDAC1) [nM]	Selectivity factor (SF) = HDAC1 IC50/HDAC6 IC50 (HDAC1)	HDAC1 average enzyme isoform activity (percentage of full enzyme activity) (HDAC1) [%]	IC50 (HDAC6) [nM]	HDAC6 average enzyme isoform activity (percentage of full enzyme activity) (HDAC6) [%]	HDAC8 average enzyme isoform activity (percentage of full enzyme activity) (HDAC8) [%]	Structure (SMILES)
343	386 nm and 374 nm	437	0.05	27 ± 3	47	17.2	240 ± 11	413	58.7	4330 ± 390	7466	93.4	87 ± 7	150	38.7	0.58 ± 0.002	19.7	–	COc1ccc(C(=O)Nc2cc3c4c(cccc4c2)C(=O)N(CCCCCC(=O)NO)C3=O)cc1 [KNH020]
341	383 nm	435	0.04	32 ± 1	–	20.1	2160 ± 140	2234	90.7	950 ± 50	981	50.4	37 ± 2	38	29.8	0.97 ± 0.05	20.3	–	CCC(=O)Nc1cc2c3c(cccc3c1)C(=O)N(CCCCCC(=O)NO)C2=O [KNH021]
–	–	–	–	–	–	–	–	–	–	–	–	–	–	–	–	–	–	60.3	O=C(CCCCCN1C(=O)c2cccc3cccc(c23)C1=O)NO [scriptaid, reference compound]
345	367 nm	442	0.06	–	–	–	–	–	–	–	–	–	–	–	–	–	–	–	COCCN1C(=O)c2cccc3cc(NC(=O)OC(C)(C)C)cc(c23)C1=O [Compound 9]

From paper PMC8232238 (Cells, 2021)
